Measured values reported in BindingDB's records for doi:10.1016/j.bmcl.2017.01.038 (Novartis Institutes For Biomedical Research, 2017).

Target: Protein kinase C beta type (Mus musculus) (UniProt P68404)
Experiment: Inhibition of PKCbeta in mouse B cells assessed as reduction in IgM-stimulated cell proliferation

Sequence of Protein kinase C beta type (Mus musculus) (P68404 whole entry, looked up): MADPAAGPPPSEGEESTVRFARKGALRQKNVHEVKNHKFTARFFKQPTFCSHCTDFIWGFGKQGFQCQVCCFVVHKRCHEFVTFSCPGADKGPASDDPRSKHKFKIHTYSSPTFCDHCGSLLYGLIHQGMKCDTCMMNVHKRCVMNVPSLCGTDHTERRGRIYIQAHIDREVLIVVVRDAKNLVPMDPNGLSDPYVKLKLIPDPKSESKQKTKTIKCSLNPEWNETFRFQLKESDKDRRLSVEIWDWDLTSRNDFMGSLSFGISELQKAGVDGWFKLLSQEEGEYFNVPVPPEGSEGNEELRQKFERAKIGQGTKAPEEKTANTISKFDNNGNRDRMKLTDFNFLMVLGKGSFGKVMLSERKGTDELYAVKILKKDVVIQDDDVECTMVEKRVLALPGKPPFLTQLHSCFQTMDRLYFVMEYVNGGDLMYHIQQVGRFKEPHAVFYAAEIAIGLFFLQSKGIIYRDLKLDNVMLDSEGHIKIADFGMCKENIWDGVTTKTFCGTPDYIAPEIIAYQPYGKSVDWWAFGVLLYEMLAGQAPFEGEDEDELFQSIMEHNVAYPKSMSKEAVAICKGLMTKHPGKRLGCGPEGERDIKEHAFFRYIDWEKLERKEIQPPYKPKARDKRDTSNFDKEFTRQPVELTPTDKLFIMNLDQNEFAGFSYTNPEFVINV

| IC50 [nM] | Compound |
| --- | --- |
| 296 | CN(C)Cc1ccc2ccc(Cl)c(C3=C(c4cn(C)c5ccccc45)C(=O)NC3=O)c2c1 |
| 234 | CN1CCN(c2nc(C3=C(c4c[nH]c5ccccc45)C(=O)NC3=O)c3ccccc3n2)CC1 [Sotrastaurin] |
